Assays:
[1] = tested on: KLH-specific T cell responses; assay: Footpad immunisation with KLH (PBS, alum or LPS) with or without TCT; popliteal lymph node cytokines; type: in vivo, BALB/c mice
Description: BALB/c mice were injected subcutaneously into the footpad with either PBS alone, KLH (20 μg), KLH adsorbed to alum, KLH+LPS (10 μg) or KLH+TCT (10 or 25 μg), KLH+LPS+TCT or KLH+TCT adsorbed to alum. 5 days later mice were sacrificed and the popiliteal LNs were removed. Single LN cell suspensions were cultured in the presence of increasing concentrations of KLH (2-50 μg/ml) or PMA/CD3 or medium as positive and negative controls respectively. Supernatants were taken 3 days later and tested for IFN-γ, IL-10, IL-4 and IL-5 by ELISA. Results are mean (+/−SD) values for 5 mice per group.

murine NOD1 = target: T1, murine NOD1 (Mus musculus, UniProt Q8BHB0); settings: cited from earlier work
T1 sequence (Q8BHB0 1-953): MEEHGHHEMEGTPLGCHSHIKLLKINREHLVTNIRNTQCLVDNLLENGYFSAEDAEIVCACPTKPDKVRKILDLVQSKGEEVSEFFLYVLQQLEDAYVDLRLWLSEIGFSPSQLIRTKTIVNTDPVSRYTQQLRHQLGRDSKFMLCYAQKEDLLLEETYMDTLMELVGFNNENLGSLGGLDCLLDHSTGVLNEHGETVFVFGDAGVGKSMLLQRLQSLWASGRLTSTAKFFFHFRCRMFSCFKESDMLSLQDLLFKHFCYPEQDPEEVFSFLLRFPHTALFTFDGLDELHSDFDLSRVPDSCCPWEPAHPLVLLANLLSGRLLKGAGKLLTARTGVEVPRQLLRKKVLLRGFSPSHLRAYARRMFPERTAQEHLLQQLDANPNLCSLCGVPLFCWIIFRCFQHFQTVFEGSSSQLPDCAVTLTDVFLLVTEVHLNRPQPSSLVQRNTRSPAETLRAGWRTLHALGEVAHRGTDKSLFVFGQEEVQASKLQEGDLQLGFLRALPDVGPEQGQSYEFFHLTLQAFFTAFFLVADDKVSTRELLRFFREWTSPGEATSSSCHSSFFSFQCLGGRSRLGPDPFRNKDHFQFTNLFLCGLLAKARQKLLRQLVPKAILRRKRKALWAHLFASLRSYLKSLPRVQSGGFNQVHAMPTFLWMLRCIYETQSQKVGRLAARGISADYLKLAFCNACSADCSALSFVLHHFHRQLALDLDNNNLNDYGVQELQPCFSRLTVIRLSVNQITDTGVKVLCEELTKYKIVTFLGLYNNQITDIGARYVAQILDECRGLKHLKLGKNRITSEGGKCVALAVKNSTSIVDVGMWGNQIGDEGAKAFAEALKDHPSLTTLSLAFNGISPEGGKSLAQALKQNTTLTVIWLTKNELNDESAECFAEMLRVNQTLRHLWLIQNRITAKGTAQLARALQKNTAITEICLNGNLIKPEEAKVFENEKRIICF

[2] = tested on: Bone marrow-derived dendritic cells (BMDCs); assay: Cytokine production (ELISA) by BMDCs pre-treated with TCT, then stimulated with TLR agonists; type: cell-based, BALB/c mice
[3] = tested on: BMDC with CD4+ T cells from OVA TCR transgenic mice; assay: TCT pre-treated BMDC cultured with OVA and CD4+ T cells from OVA TCR Tg mice; cytokines by ELISA; type: cell-based; settings: DC pre-treated with TCT 10 μg/ml for 2 hours; supernatant after 4 days
Description: Dendritic cells act as antigen presenting cells and also serve to direct the induction of distinct T cell responses. Therefore, we examined the influence of TCT on dendritic cells and their ability to promote T cell responses in vitro. Bone marrow-derived dendritic cells DC (BMDC) were cultured with CD4^+ T cells (4×10^5) from OVA T cell receptor (TCR) transgenic (Tg) mice. BMDC were pre-treated with TCT (10 μg/ml) or medium only for 2 hours prior to the addition of antigen (OVA 0.2-5 μg/ml) and CD4^+ T cells purified from the spleens of OVA TCR Tg mice. OVA-specific cytokine production was measured in supernatant taken after 4 days by ELISA.

[4] = KLH and LPS, co-administration of TCT
[5] = KLH in alum, TCT 10 or 25 μg/mouse
[6] = KLH in alum, treatment with TCT
[7] = co-administration of TCT with KLH in PBS

SMILES: CC(=O)NC1C(OC2C3COC(O3)C(NC(C)=O)C2OC(C)C(=O)NC(C)C(=O)NC(CCC(=O)NC(CCCC(N)C(=O)NC(C)C(=O)O)C(=O)O)C(=O)O)OC(CO)C(O)C1O (centres unmarked) [TCT, N-acetylglucosaminyl-1,6-anhydro-N-acetylmuramylalanyl-γ-glutamyldiaminopimelylalanine]
- IFN-γ production promoted with LPS [1, 4]: not affected
- IL-10 production promoted with LPS [1, 4]: not affected
- IL-4 response, draining lymph node cells [1, 5]: significantly reduced
- IL-5 response, draining lymph node cells [1, 5]: significantly reduced
- IFN-γ production, draining lymph node cells [1, 6]: not significantly affected
- IL-10 production, draining lymph node cells [1, 6]: not significantly affected
- IFN-γ response [1, 7]: enhanced
- IL-10 response [1, 7]: enhanced
- NOD1 detection of TCT (murine NOD1): did so effectively
- IL-10 production by dendritic cells in synergy with the TLR4 agonist MPL [2]: enhances
- OVA-specific IFN-γ production [3]: did not affect
- OVA-specific IL-4 production [3]: significantly reduced
- OVA-specific IL-5 production [3]: significantly reduced
- OVA-specific IL-13 production [3]: significantly reduced

Reference: US20090176696A1, “Methods And Compositions For Modulating An Immune Response” (priority 2006, published 2009)
